We go through one substance from US20230242669A1, “ANTIBODY THAT BINDS ERBB-2 AND ERBB-3” (Merus N.V., priority 2014, published 2023).

In one test the test system is AKT in JIMT-1 tumors. Kind of test: Phosphoprotein analysis of JIMT-1 tumors by Luminex. Type of test: in vivo, mice. The protocol:
Tumors were flash-frozen and processed to powder. Tumor lysates were prepared to a concentration of 50 mg tumor/mL using cold BioRad Lysis Buffer (supplemented with 0.4% BioRad Factor 1, 0.2% BioRad Factor 2, and 2 mM PMSF) to the frozen powder samples, incubated at 4° C. on a rocker for 60 minutes to ensure complete lysis. The samples were centrifuged at 4° C. for 10 minutes at 16000 × g, and aliquoted. Total protein was determined using the Biorad DC Protein Assay reagents according to manufacturer’s instructions. Luminex Assay: The JIMT-1 tumor lysate samples were processed and analyzed for: Total AKT AKT(Ser473) and AKT(Thr308using commercially available Luminex kits from Millipore (Cat # 48-618MAG (Lot No. 2532050), 46-645MAG (Lot No. 46645 M-1K). Each sample was tested in duplicate. Dilutions were prepared in sample diluent to load a target of approximately 25 µg protein per well for all total and phosphorylated analyte determinations. The Millipore kits were used according to the manufacturer’s specifications.

For test [1], the system named is HRG mediated phosphorylation in N87 and SKBR-3 cells. Kind of test: Western blot of HRG stimulated cells. Type of test: cell-based, human. As to conditions: 5 nM antibody, 100 ng/ml HRG, 1-24 hours. The protocol:
Cells of an exponentially grown culture were harvested and seeded in 10 cm dishes (20×10^6 cells for N87 and 7×10^6 cells for SKBR-3) in starvation medium (N87 cells: RPMI-1640, 0.05% BSA, 10 µg/ml Holo-transferrin; SKBR-3 cells: DMEM/F-12, 2 mM L-glutamine, 0.05% BSA, 10 µg/ml Holo-transferrin). The next day, antibodies were added to a final concentration of 5 nM and cells were incubated for one hour. HRG was then added to a final concentration of 100 ng/ml. After 1, 3, 6 or 24 hours, dishes were placed on ice, cells were washed twice with cold PBS, transferred to Eppendorf tubes and lysed with 250 µl of RIPA lysis buffer (20 mM Tris-HCl pH 7.5, 150 mM NaCl, 1 mM Na2EDTA, 1 mM EGTA, 1% NP-40, 1% sodium deoxycholate, 0.1% SDS, 2.5 mM sodium pyrophosphate, 1 mM beta-glycerophosphate, 1 mM Na3VO4, 1 µg/ml leupeptin). Lysis was allowed to proceed for 30 minutes on ice. Cell lysates were centrifuged and supernatants were collected in new Eppendorf tubes. Protein concentration was determined using the BCA method (Pierce). […] Membranes were blocked for one hour with TBS-T containing 5 % BSA and stained with the indicated antibodies according to the manufacturer’s instructions (Cell Signaling Technology). Membranes were then incubated with a HRP-conjugated secondary antibody, incubated with ECL substrate and subjected to autoradiography using X-ray films (Amersham). […]
A general note: In western blotting, separated proteins are transferred to a membrane and probed.

For a further test, the system named is JIMT-1 tumor. Kind of test: JIMT-1 xenograft study. The class given is in vivo, CB.17 SCID mice. As to conditions: 2.5 and 25 mg/kg ip qwk × 4. The protocol:
JIMT-1 human breast carcinoma cells were grown in DMEM containing 10% fetal bovine serum, 100 units/mL penicillin G sodium, 100 µg/mL streptomycin sulfate, 25 µg/mL gentamicin, and 2 mM glutamine until the time of implantation. At the day of implantation JIMT-1 breast cells were harvested during log phase growth and resuspended in cold PBS. […] Each mouse was injected subcutaneously in the right flank with 5 ×10^6 tumor cells (0.2 mL cell suspension). The tumors were measured with a caliper in two dimensions to monitor size as the mean volume twice per week. Once tumors had reached approximately 100-150 mm^3 in size animals were enrolled in the efficacy study. Outlier animals -tumor volume - were removed and the mice were randomly distributed into groups of 10 mice each. Mice were injected once weekly (antibody) or daily (lapatinib) for a period of four weeks. Details of the treatment groups are depicted in Table 11.
Tumor sizes were measured weekly by caliper measurement.

Test [2] deals with HRG mediated phosphorylation in N87 and SKBR-3 cells. Briefly: PathScan RTK / intracellular signaling antibody arrays. The class given is cell-based, human. As to conditions: 5 nM antibody, 100 ng/ml HRG. On the procedure:
Cells of an exponentially grown culture were harvested and seeded in 6 well plates (3.75 ×10^6 cells for N87 and 1.5×10^6 cells for SKBR-3) in starvation medium (N87 cells: RPMI-1640, 0.05% BSA, 10 µg/ml Holo-transferrin; SKBR-3 cells: DMEM/F-12, 2 mM L-glutamine, 0.05% BSA, 10 µg/ml Holo-transferrin) and incubated incubated overnight at 37° C., 5% CO2, in 95% relative humidity. The next day, antibodies were added to a final concentration of 5 nM and cells were incubated for one hour at 37° C., 5% CO2, in 95% relative humidity. HRG was then added to a final concentration of 100 ng/ml. After 1, 3, 6 or 24 hours at 37° C., 5% CO2, in 95% relative humidity, plates were placed on ice, cells were washed twice with cold PBS. Subsequently 0.3 ml ice-cold lysis buffer was added (Cell signaling RTK # 9803 or IC # 7018) and cells were lysed for a minimum of 30 minutes on ice. Next, protein concentrations were measured using BCA (Pierce #23235). Protein concentrations were adjusted to 2 mg/ml with lysis buffer. Next, lysates were applied to PathScan RTK Signaling Antibody Arrays (Cell signaling #7949) or PathScan Intracellular Signaling Antibody Arrays. All incubations were performed with sealed wells on an orbital shaker at room temperature. Lysates (75 µl) were diluted 2 times to […] concentration with 75 µl Array Diluent Buffer supplemented with protease inhibitor cocktail and kept on ice. Array wells were blocked with 100 µl Array block buffer for 15 minutes. Block buffer was removed and Lysates were applied to the wells and allowed to incubate for 2 hours. Lysate was aspirated and wells were washed 4 times with 100 µl Wash buffer. Next, 100 µl detection antibody cocktail was added per well and incubated for 1 hour. Antibody cocktail was aspirated and wells were washed 4 times with 100 µl Wash buffer. 75 µl DYLIGHT80™ Streptavidin was added to each well. DYLIGHT80™ Streptavidin was aspirated and wells were washed 4 times with 100 µl Wash buffer. […] Spot fluorescence intensity was calculated using Image Studio software.

Regarding “PB4188: bispecific HER2xHER3 IgG: HER2 arm MF3958, HER3 arm MF3178”, in the test on AKT in JIMT-1 tumors (JIMT-1 tumors), the “Akt expression in tumors compared to untreated tumors” value is recorded as “increase in Akt expression”. In the test with AKT in JIMT-1 tumors (after two-weekly and four-weekly dose), the “Phosphorylation of AKT in tumors” value is “completely inhibited”. In addition, in test [1], the HER3 phosphorylation result is on record as “prolonged inhibition of HER3 phosphorylation”. Also, in the test on JIMT-1 tumor, the “Efficacy on tumor size” value was “more potent than lapatinib or the combination pertuzumab and trastuzumab”. In test [2], the “ERK and S6 phosphorylation” value is given as “strong inhibition”; the HER2 phosphorylation result is “does not inhibit phosphorylation of HER2”. The AKT phosphorylation entry in test [2] (first 6H) is “completely blocks AKT phosphorylation”.
